Data taken from patent US11021468B2, “TGF-ß inhibitors” (Rigel Pharmaceuticals, Inc., priority 2015, dated 2021).

Assays:
[1] = test system: TGF-β; experiment: AlphaScreen SureFire SMAD3 (p-Ser423/425) assay, TGF-β-stimulated (TGF-β pSMAD (MPC-11)); type: cell-based; conditions: p-SMAD-3 (Ser423/425)
Text: (§1) Example 2: AlphaScreen® SureFire® SMAD3 (p-Ser423/425) Assay
(§2) The p-SMAD-3 (Ser423/425) SureFire® assay has been designed to measure the phosphorylation of endogenous cellular p-SMAD-3 (Ser423/425) in cell lysates and is a system for the screening of both modulators of receptor activation (e.g. agonists and antagonists) as well as agents acting intracellularly, such as small molecule inhibitors of upstream events. The assay will measure p-SMAD-3 (Ser423/425) activation by either cloned or endogenous receptors, and can be applied to primary cells.
(§3) P-SMAD-3 (Ser423/425) SureFire® Assay Protocols
(§4) 96-well Assay Protocol for 293FT and RMS13 adherent cells can be carried out manually or in high throughput with liquid handling robots.
(§5) The cells (80 μL of cells for 96 well plates) were plated in collagen coated tissue culture plates in RPMI or FreeStyle medium (Invitrogen) and incubated overnight. For manual analysis, 6 plates for GDF8, 6 plates for TGFβ, and optionally 6 plates for Alk5ca(ALK5 constitutively active) were used.
(§6) The compound dilution plates were prepared as follows: 12 μL of DMSO was transferred into first column of 96-well plate, and 16 μL of DMSO was transferred into columns 2-12 of the 96-well plate. 12 μL of compound solution was transferred into first column of the DMSO-containing 96-well plate. Three-fold dilution was performed up to column 10 of the DMSO-containing 96-well plate.
(§7) The plate containing cells were treated with compounds for about 10 minutes, and then ligand was added. GDF8 or TGFb was added to plates to stimulate. 293FL cells were stimulated for 90 minutes at 37° C.; and RMS13 cells were stimulated for 60 minutes at 37° C. The medium was then removed from the cells, and 1× Lysis Buffer (about 25 μL) was added and the plate was gently agitated on plate shaker for 5-10 minutes.
(§8) The lysate (5 μL) was then placed into 384-well shallow plates avoiding the generation of bubbles. To this, the Reaction Buffer+Activation Buffer+AlphaScreen® Acceptor beads mixture (5 μL) was added. The plate was sealed with adhesive cover and shielded from light (e.g., with metal foil), and agitated gently on plate shaker for 2 hours at room temperature.
(§9) Dilution buffer+AlphaScreen® Donor beads (2 μL) was then added, and the plate was intubated on the plate shaker for an additional 1½ hours. After completion, the plate was read on Synergy-4 or Enspire plate reader, using AlphaScreen® pSMAD3® settings.
(§10) Representative results for inhibition of GDF8 (data=GDF pSMAD (MPC11) (μM)) and TGF-β (data=TGF-β pSMAD (MPC-11) (μM)) signaling are shown in Table 1: […]

[2] = test system: GDF8; experiment: AlphaScreen SureFire SMAD3 (p-Ser423/425) assay, GDF8-stimulated (GDF pSMAD (MPC11)); type: cell-based; conditions: p-SMAD-3 (Ser423/425)
Text: as §1, §2, §3, §4, §5, §6, §7, §8, §9, §10

[3] = Mus musculus, MPC-11, inhibition of TGF-β signaling
[4] = Mus musculus, MPC-11, inhibition of GDF8 signaling

| SMILES | IC50 [1, 3] [nM] | IC50 [2, 4] [nM] | IC50 ([1]; inhibition of TGF-β signaling) [nM] | IC50 ([2]; inhibition of GDF8 signaling) [nM] |
| --- | --- | --- | --- | --- |
| Cc1ccc(C)c(-c2nccc(Nc3ccc4c(cnn4C(=O)CN(C)C)c3)n2)c1 [Compound 1, 2-(Dimethylamino)-1-(5-((2-(2,5-dimethylphenyl)pyrimidin-4-yl)amino)-1H-indazol-1-yl)ethan-1-one] | 560 | 47.2 | – | – |
| Cc1cccc(-c2nc(Nc3cnc4[nH]ncc4c3)c3ccccc3n2)n1 [Compound 2, 2-(6-Methylpyridin-2-yl)-N-(1H-pyrazolo[3,4-b]pyridin-5-yl)quinazolin-4-amine] | 318 | 144 | – | – |
| Fc1ccc(-c2nccc(Nc3cnc4[nH]ncc4c3)n2)cc1F [Compound 3, N-(2-(3,4-Difluorophenyl)pyrimidin-4-yl)-1H-pyrazolo[3,4-b]pyridin-5-amine] | 1530 | 382 | – | – |
| Fc1ccc(-c2nccc(Nc3cnc4[nH]ncc4c3)n2)cc1 [Compound 4, N-(2-(4-Fluorophenyl)pyrimidin-4-yl)-1H-pyrazolo[3,4-b]pyridin-5-amine] | 840 | 171 | – | – |
| Fc1ccc(-c2nc(Nc3ccc4[nH]ncc4c3)c3cc[nH]c3n2)cc1 [Compound 5, 2-(4-Fluorophenyl)-N-(1H-indazol-5-yl)-7H-pyrrolo[2,3-d]pyrimidin-4-amine] | 751 | 66.1 | – | – |
| Fc1ccc(-c2nc(Nc3ccc4[nH]ncc4c3)c3cc[nH]c3n2)cc1F [Compound 6, 2-(3,4-Difluorophenyl)-N-(1H-indazol-5-yl)-7H-pyrrolo[2,3-d]pyrimidin-4-amine] | 1680 | 264 | – | – |
| Fc1ccc(-c2nc(Nc3ccc4[nH]ncc4c3)c3cc[nH]c3n2)c(F)c1 [Compound 7, 2-(2,4-Difluorophenyl)-N-(1H-indazol-5-yl)-7H-pyrrolo[2,3-d]pyrimidin-4-amine] | 874 | 119 | – | – |
| Cc1cc(-c2nc(Nc3ccc4[nH]ncc4c3)c3cc[nH]c3n2)ccc1F [Compound 8, 2-(4-Fluoro-3-methylphenyl)-N-(1H-indazol-5-yl)-7H-pyrrolo[2,3-d]pyrimidin-4-amine] | 747 | 84.2 | – | – |
| Cc1cccc(-c2nc(Nc3ccc4[nH]ncc4c3)c3cc[nH]c3n2)c1 [Compound 9, N-(1H-Indazol-5-yl)-2-(3-methylphenyl)-7H-pyrrolo[2,3-d]pyrimidin-4-amine] | 1460 | 336 | – | – |
| Fc1ccc(-c2nc(Nc3ccc4[nH]ncc4c3)c3[nH]ccc3n2)cc1 [Compound 10, 2-(4-Fluorophenyl)-N-(1H-indazol-5-yl)-5H-pyrrolo[3,2-d]pyrimidin-4-amine] | 5130 | 644 | – | – |
| Cc1cccc(-c2nc(Nc3ccc4[nH]ncc4c3)c3[nH]ccc3n2)c1 [Compound 11, N-(1H-Indazol-5-yl)-2-(3-methylphenyl)-5H-pyrrolo[3,2-d]pyrimidin-4-amine] | 5330 | 917 | – | – |
| Cc1cc(F)ccc1-c1ncc(F)c(Nc2cnc3[nH]ncc3c2)n1 [Compound 12, N-(5-Fluoro-2-(4-fluoro-2-methylphenyl)pyrimidin-4-yl)-1H-pyrazolo[3,4-b]pyridin-5-amine] | 1590 | 481 | – | – |
| Cc1cnc(-c2cccc(F)c2)nc1Nc1cnc2[nH]ncc2c1 [Compound 13, N-(2-(3-Fluorophenyl)-5-methylpyrimidin-4-yl)-1H-pyrazolo[3,4-b]pyridin-5-amine] | 2720 | 883 | – | – |
| Cc1cnc(-c2ccc(F)cc2)nc1Nc1cnc2[nH]ncc2c1 [Compound 14, N-(2-(4-Fluorophenyl)-5-methylpyrimidin-4-yl)-1H-pyrazolo[3,4-b]pyridin-5-amine] | 732 | 306 | – | – |
| Cc1cnc(-c2ccc(F)c(F)c2)nc1Nc1cnc2[nH]ncc2c1 [Compound 15, N-(2-(3,4-Difluorophenyl)-5-methylpyrimidin-4-yl)-1H-pyrazolo[3,4-b]pyridin-5-amine] | 876 | 685 | – | – |
| Cc1cccc(-c2ncc(C)c(Nc3cnc4[nH]ncc4c3)n2)c1 [Compound 16, N-(2-(3-Methylphenyl)-5-methylpyrimidin-4-yl)-1H-pyrazolo[3,4-b]pyridin-5-amine] | 410 | 289 | – | – |
| Fc1ccccc1-c1nccc(Nc2ccc3[nH]ncc3c2)n1 [Compound 17, N-(2-(2-Fluorophenyl)pyrimidin-4-yl)-1H-indazol-5-amine] | 2170 | 220 | – | – |

| SMILES | IC50 [1, 3] [nM] | IC50 [2, 4] [nM] | IC50 ([1]; inhibition of TGF-β signaling) [nM] | IC50 ([2]; inhibition of GDF8 signaling) [nM] |
| --- | --- | --- | --- | --- |
| Fc1cccc(-c2nccc(Nc3ccc4[nH]ncc4c3)n2)c1 [Compound 18, N-(2-(3-Fluorophenyl)pyrimidin-4-yl)-1H-indazol-5-amine] | 1360 | 154 | – | – |
| COc1cccc(-c2nccc(Nc3ccc4[nH]ncc4c3)n2)c1 [Compound 19, N-(2-(3-Methoxyphenyl)pyrimidin-4-yl)-1H-indazol-5-amine] | 4050 | 766 | – | – |
| c1ccc(-c2nccc(Nc3ccc4[nH]ncc4c3)n2)cc1 [Compound 20, N-(2-Phenylpyrimidin-4-yl)-1H-indazol-5-amine] | 1740 | 358 | – | – |
| Cc1ccccc1-c1nccc(Nc2ccc3[nH]ncc3c2)n1 [Compound 21, N-(2-(2-Methylphenyl)pyrimidin-4-yl)-1H-indazol-5-amine] | 1230 | 201 | – | – |
| Fc1ccc(-c2nccc(Nc3ccc4[nH]ncc4c3)n2)cc1F [Compound 22, N-(2-(3,4-Difluorophenyl)pyrimidin-4-yl)-1H-indazol-5-amine] | – | – | 112 | 32.1 |
| Fc1cc2[nH]ncc2cc1Nc1ccnc(-c2ccccc2F)n1 [Compound 23, 6-Fluoro-N-(2-(2-fluorophenyl)pyrimidin-4-yl)-1H-indazol-5-amine] | 1320 | 257 | – | – |
| Fc1ccccc1-c1ncc(F)c(Nc2ccc3[nH]ncc3c2)n1 [Compound 24, N-(5-Fluoro-2-(2-fluorophenyl)pyrimidin-4-yl)-1H-indazol-5-amine] | 3990 | 846 | – | – |
| Fc1ccc(-c2nccc(Nc3ccc4[nH]ncc4c3)n2)cc1F [Compound 25, N-(2-(3,4-Difluorophenyl)pyrimidin-4-yl)-1H-indazol-5-amine] | – | – | 326 | 91.1 |
| Cc1ccc(F)cc1-c1nccc(Nc2ccc3[nH]ncc3c2)n1 [Compound 26, N-(2-(5-fluoro-2-methylphenyl)pyrimidin-4-yl)-1H-indazol-5-amine] | 1000 | 126 | – | – |
| Fc1cc(F)cc(-c2nccc(Nc3ccc4[nH]ncc4c3)n2)c1 [Compound 27, N-(2-(3,5-Difluorophenyl)pyrimidin-4-yl)-1H-indazol-5-amine] | 2200 | 287 | – | – |
| COc1ccc(-c2nccc(Nc3ccc4[nH]ncc4c3)n2)cc1F [Compound 28, N-(2-(3-Fluoro-4-methoxyphenyl)pyrimidin-4-yl)-1H-indazol-5-amine] | 2140 | 363 | – | – |
| N#Cc1cccc(-c2nccc(Nc3ccc4[nH]ncc4c3)n2)c1 [Compound 29, N-(2-(3-Cyanophenyl)pyrimidin-4-yl)-1H-indazol-5-amine] | 85.3 | 21.5 | – | – |
| Cc1ccc(C)c(-c2nccc(Nc3ccc4[nH]ncc4c3)n2)c1 [Compound 30, N-(2-(2,5-Dimethylphenyl)pyrimidin-4-yl)-1H-indazol-5-amine] | 842 | 193 | – | – |
| Nc1cccc(-c2nccc(Nc3ccc4[nH]ncc4c3)n2)c1 [Compound 31, N-(2-(3-Aminophenyl)pyrimidin-4-yl)-1H-indazol-5-amine] | 2710 | 463 | – | – |
| Cc1cccc(-c2nccc(Nc3ccc4[nH]ncc4c3)n2)c1 [Compound 32, N-(2-(3-Methylphenyl)pyrimidin-4-yl)-1H-indazol-5-amine] | 553 | 116 | – | – |
| Fc1ccc(-c2nccc(Nc3ccc4[nH]ncc4c3)n2)cc1 [Compound 33, N-(2-(4-Fluorophenyl)pyrimidin-4-yl)-1H-indazol-5-amine] | 203 | 25.1 | – | – |
| Cc1ccccc1-c1ncc(F)c(Nc2ccc3[nH]ncc3c2)n1 [Compound 34, N-(5-Fluoro-2-(methylphenyl)pyrimidin-4-yl)-1H-indazol-5-amine] | 2340 | 427 | – | – |
